Reference: patent US9629816B2, “Small molecule therapeutic compounds targeting thioesterase deficiency disorders and methods of using the same” (The United States of America, as represented by the …, priority 2011, dated 2017)
“And” between values parts separate entries of the source, which are not always exact repeats. Equal values may be shown once.

What was measured:
INCL fibroblasts = experiment: Depletion of [35S]cysteine-labeled lipid thioesters in INCL fibroblasts; format: cell-based, human; details: treatment for 24 and 48 hours vs untreated control cells (FIG. 7)
Experimental: Thus, this derivative was chosen for more extensive study of its ability to hydrolyze […] proteins, and to deplete lipid-extractable [^35S]cysteine thioesters from fibroblasts and lymphoblasts. INCL fibroblasts were obtained and cultured as described in Example 4. The cells were then labeled with [^35S]cysteine. Briefly, following incubation for six hours in medium lacking serum and cysteine/cystine, the cells were washed and then re-cultured for varying lengths of time in medium containing NtBuHA, with a change of medium every 12 hours. As controls, [^35S]cysteine-labeled cells were cultured in drug-free medium as well as medium containing 1M HA. Following incubation, cells were washed twice with cold PBS and then centrifuged at 2,250 g at 4° C. for 5 minutes. Lipid thioesters were then extracted from the cells and subject to analysis by high-performance thin layer chromatography. Briefly, the extracted fatty acyl esters were dissolved in chloroform:methanol (1:1) and an aliquot applied to a TLC plate and resolved using a mixture of chloroform:methanol:water (65:25:4). The plates were then dried and autoradiographs obtained.

PPT1-KO mice [1] = experiment: Autofluorescence of brain tissues of PPT1-KO mice; format: in vivo, mouse; details: vs untreated PPT1-KO mice (FIG. 13)
Experimental: (§1) All animal experiments were performed according to the institutional guidelines after an animal protocol was approved by the Animal Care and Use Committee of the National Institute of Child Health and Development, National Institutes of Health. PPT1-KO mice (a gift from Dr. S. L. Hofmann, University of Texas Southwestern Medical Center at Dallas, Dallas, Tex., USA) were generated by targeted disruption of the last exon in the PPT1 gene in embryonic stem (ES) cells. These mice were subsequently backcrossed for 10 generations with wild type C57BL/6 mice in order to obtain congenic C57 background and a breeding pair was provided by Dr. Mark Sands to start the inventors' colony. Animals were housed and maintained in a pathogen-free facility. Three-month old PPT-KO mice were given NtBuHA in their drinking water (1 mM NtBuHA and 1 mM NaCl).
Accumulation of intracellular autofluorescent lipopigment material in the brain and other tissues is a characteristic pathological finding in INCL patients and in PPT1-KO mice. Given this, it was hypothesized that NtBuHA-mediated depletion of GRODs may also reduce the intensity of autofluorescence in brain tissues of NtBuHA-treated PPT1-KO mice. Accordingly, a comparison of the autofluorescence of brain tissues from NtBuHA-treated PPT 1-KO mice, untreated PPT 1-KO mice, and wild-type litter-mates was performed.

PPT1-KO mice [2] = experiment: Western blot of ER-stress and oxidative-stress markers in brain lysates of PPT1-KO mice; format: in vivo, mouse
Experimental: (§2) Western blot analysis was performed as using standard methodology. Briefly 30 μg of protein was resolved in 4-12% Bis tris gel (Invitrogen) and electro-transferred in PVDF membrane. The membranes were blocked with 5% non fat dried milk for 1 hour at room temperature and were then probed overnight with primary antibody at 4 C. After washing the blots were incubated with horseradish peroxidase conjugated secondary antibody (Santacruz Biotechnology) for 1 hour at room temperature and developed using enhanced chemiluminescences detection reagents (Pierce). Primary antibodies used in this study were caspase-3, caspase-9 (cell signaling) SOD2, catalase, β-Actin (US Biologicals).
It has previously reported that endoplasmic reticulum (ER-) and oxidative-stress contribute to neuropathology in INCL patients. […] Therefore, the inventors sought to determine whether NtBuHA-treatment of PPT1-KO mice ameliorate the ER- and oxidative-stress in brain tissues of these mice. Accordingly, the levels of ER-stress markers Grp-78, Grp-94 and ATF6 were determined by Western blot analysis of brain lysates. […] Western blot analysis of brain lysates from NtBuHA-treated and untreated PPT1-KO mice was also performed to determine the levels of superoxide dismutase-2 (SOD2) and catalase, which increases with elevated oxidative-stress.

PPT1-KO mice [3] = experiment: Western blot of caspase-9 and cleaved PARP-1 in cortical tissue homogenates of PPT1-KO mice; format: in vivo, mouse; details: cortical tissue homogenates (FIG. 17)
Experimental: as §2
(§3) It has been reported that postmortem brain tissues from INCL patients as well as those from PPT1-KO mice manifest high levels of oxidative stress, which induces neuronal apoptosis contributing to neuropathology. […] Accordingly, a terminal deoxynucleotidyl transferase dUTP nick end labeling (TUNEL) assay was performed using cortical tissue sections from wild-type, untreated PPT1-KO and NtBuHA-treated PPT1-KO mice to determine the level of apoptosis. […] Quantitative analysis of the NeuN-positive cells in brain tissues from wild-type, untreated and NtBuHA-treated PPT1-KO mice (FIG. 18D) confirmed the visual assessment.

PPT1-KO mice [4] = experiment: NeuN immunohistochemistry of cortical tissue sections of PPT1-KO mice; format: in vivo, mouse; details: brain sections vs untreated PPT1-KO mice (FIG. 18)
Experimental: The NtBuHA treated and untreated mouse brain tissues were fixed in 3.7% paraformaldehyde, embedded in paraffin and processed for histological analyses. Briefly, after being treated with xylene and then successively with different concentrations of ethanol in phosphate buffered saline (PBS) (100% to 0%), tissue sections were blocked with 5% BSA in PBS. Sections were then probed overnight with anti-synaptophysin (Abcam) and anti-GFAP followed by incubation with alexa fluor 594 conjugated anti-rabbit and anti-mouse secondary antibodies (Invitrogen). Sections were mounted with DAPI containing mounting medium and imaged using Zeiss LSM 510 Inverted Meta confocal microscope (Carl Zeiss).
as §3

PPT1-KO mice [5] = experiment: Blood methemoglobin level in PPT1-KO mice; format: in vivo, mouse
Experimental: The ability of the HA-derivative NtBuHA to increase methemoglobin levels was tested by placing PPT1-KO mice on a diet containing NtBuHA. After three months on the diet, the level of methemoglobin in the animal's blood was measured.

PPT1-KO mice [6] = experiment: Survival of PPT1-KO mice; format: in vivo, mouse; details: 5.5 months after initiation; treatment from 3 months of age; 52 out of 59 mice; untreated 10%
Experimental: as §1
For this study, 3-month old PPT1-KO mice were divided into two groups. In the first group, 55 mice received no treatment (control). In the second group, 59 mice were treated with NtBuHA. The status of all mice was monitored on a daily basis.

PPT1-KO mice [7] = experiment: Toxicity of dietary NtBuHA in Ppt1-KO mice; format: in vivo, mouse
Excerpt: Thus, toxicity of HA precludes its clinical use. However, HA-derivatives may be non-toxic. […] (See Table 1 for a listing of these HA-derivatives). […] (See Table 3).

SMILES: CC(C)(C)NO [NtBuHA, N-(tert-Butyl)hydroxylamine]
- intensity of [35S]cysteine-labeled lipid extractable thioester compounds (INCL fibroblasts): significantly reduced intensity
- autofluorescence of brain tissues (PPT1-KO mice [1]): markedly reduced autofluorescence
- levels of SOD2 and catalase (PPT1-KO mice [2]; brain lysates vs untreated PPT1-KO mice (FIG. 14B)): significantly reduced the levels of both SOD2 and catalase
- levels of ER-stress markers Grp-78, Grp-94 and ATF6 (PPT1-KO mice [2]; brain tissues (FIG. 14A)): levels of all three ER-stress markers were reduced
- caspase-9 and cleaved PARP-1 level (PPT1-KO mice [3]): marked reduction in caspase-9 and cleaved PARP-1 level
- NeuN-positive cells (PPT1-KO mice [4]): modestly higher level of NeuN-positive cells
- % Methemoglobin (PPT1-KO mice [5]; individual NtBuHA-treated PPT1-KO mice, three months on diet, blood): 0% and 0.5% and 0.7% and 0.6%
- % Methemoglobin, Mean (PPT1-KO mice [5]; mean of 4 NtBuHA-treated PPT1-KO mice, three months on diet, blood): 0.45%
- effect on methemoglobin levels (PPT1-KO mice [5]; treatment up to three months): does not increase methemoglobin levels
- mice still alive (PPT1-KO mice [6]): 88%
- toxicity in Ppt1-KO mice (PPT1-KO mice [7]): showed no toxicity
